Patent publication US6800481B1, “Stable macroscopic membranes formed by self-assembly of amphiphilic peptides and uses therefor” (priority 1992, dated 2004)
Values joined by “and” are separate entries in the source; they are usually repeats but may differ in a detail not shown here. Identical values can stand only once. Residues, ends and D or L forms follow the SMILES beside them.

Experiments:
3T3 = assay: Cell attachment to biopolymer sheets, normal or Ca++ and Mg++ free medium (Table 6); assay type: cell-based, mouse; set-up: key: ++++: strong attachment; +++: moderate attachment; ++: weak attachment; +/−: little or no attachment
Protocol: (§1) Cells were pretreated in serum-free medium containing 30 μg/ml cyclohexamide for 2 hours before introduction to the peptide membranes. The cells used for the calcium and magnesium-free condition were pre-equilibrated in Ca^++ and Mg^++ free medium containing 5 mM EDTA for 15 minutes before introduction to the peptide membranes. Cells were allowed to attach to the peptide membranes for 30 minutes, 1 and 8 hours at 37° C. The attached cells were shaken for […] on a rotary rocker at 60 r.p.m., then scored under phase contrast microscopy.

[1] = Testing of peptides for macroscopic membrane formation (phase-contrast microscope, Congo Red staining); assay type: physicochemical
From the text: The effect of length and sequence on membrane formation was examined using several peptides (Table 1 and Example 3). […] Very long peptides, e.g., of about 200 amino acids, may encounter problems due to insolubility and intramolecular interactions which destabilize membrane formation. […] The optimal lengths for membrane formation will probably vary with the amino acid composition.
The EAK12 and EAK16 tested for membrane formation were acetylated and aminylated at both N- and C-terminal ends. […] The peptides were initially dissolved in water (5 mg/ml) or in 23% acetonitrile (10 mg/ml). A volume of 5-10 microliters of the dissolved peptides were applied to the DMEM medium, PBS or water. The formation of the membrane was first observed under a phase-contrast microscope and then, by the naked eye after staining with Congo Red.

[2] = system: NGF differentiated PC12 cells, retonic acid-differentiated human neuroblastoma and mouse cerebellum granule cells; assay: Neurite outgrowth on biopolymers, several neuronal cell types; assay type: cell-based
From the text: The invention further relates to the regeneration of nerves with filaments of the membranes of the present invention. Nerve regeneration can be promoted and directed by transplanting filaments of RAD16 along the correct path to their targets. This would be extremely useful for patients with severed peripheral nerves. Such a technology could be refined to help people with spinal cord injuries.

PC12 = assay: Cell attachment to biopolymer sheets, normal or Ca++ and Mg++ free medium (Table 6); assay type: cell-based, rat; set-up: key: ++++: strong attachment; +++: moderate attachment; ++: weak attachment; +/−: little or no attachment
Protocol: as §1

PC12NGF = assay: as above; assay type: cell-based, rat; set-up: key: ++++: strong attachment; +++: moderate attachment; ++: weak attachment; +/−: little or no attachment
Protocol: as §1

3T3 fibroblast cells = assay: Cell attachment to biopolymer sheets, with serum or serum-free + cyclohexamide (Table 5); assay type: cell-based, mouse; set-up: key: ++++: strong attachment; +++: moderate attachment; ++: weak attachment; +/−: little or no attachment
Protocol: 3T3 fibroblast cells were introduced to membranes of RAD16 and EAK16 in normal serum-containing medium or in serum-free medium containing 30 μg/ml cyclohexamide (cells used for this condition were pretreated in this medium for 2 hours before plating). Cells were allowed to attach to the membranes for 30 minutes, 1 and 8 hours at 37° C. The attached cells were shaken for 10 minutes on a rotary rocker at 60 r.p.m., then scored under phase contrast microscopy. The decrease in cells attached to the membrane in the serum-free condition reflects cell loss due to serum deprivation.

[3] = Ions tested for effectiveness at inducing membrane formation; conditions of membrane formation; assay type: physicochemical
Protocol: Various metal cations were tested for effectiveness at inducing membrane formation from EAK16. […] The order of effectiveness of the monovalent cations appears to be Li^+>Na^+>K^+>Cs^+. Cs^+ produces the least amount of membranes and in addition, yields nonmembranous precipitates. The effectiveness of the monovalent cations appears to correlate inversely with the crystal radii of the ions: Li^+ (0.6 Å), Na^+ (0.95 Å), K^+ (1.33 Å), and Cs^+ (1.69 Å) (Pauling, 1960). A correlation is also seen with the hydrated radii of the ions: Li^+ (3.4 Å), Na^+ (2.76 Å), K^+ (2.32 Å), and Cs^+ (2.28 Å), and with the order of enthalpies of the monovalent cations (Pauling, 1960). It is not known at present if the monovalent metal cations act as a catalyst or if they are incorporated into the membrane. […] Thus, membrane formation appears to be independent of salt concentration over this wide range. Salt concentrations of less than 5 mM may also induce membrane formation, but at a slower rate. The initial concentration of the peptide is a significant factor in the size and thickness of the membrane formed. In general, the higher the peptide concentration, the higher the extent of membrane formation. Membranes can form from initial peptide concentrations as low as 0.5 mM or 1 mg/ml. However, membranes formed at higher initial peptide concentrations (about 10 mg/ml) are thicker and thus, likely to be stronger. Therefore, it is preferable when producing the membranes to add peptide to a salt solution, rather than to add salt to a peptide solution. Formation of the membranes is very fast, on the order of a few minutes, and seems to be irreversible (see below). The process is unaffected by pH≦12 (the peptides tend to precipitate out at pH above 12), and by temperature. The membranes can form at temperatures in the range of 4 to 90° C. Formation of the membranes is inhibited by the presence of divalent metal cations at concentrations equal to or greater than 100 μM, which promote unstructured aggregation rather than membrane formation, and by sodium dodecyl sulfate (SDS) at a concentration of at least 0.1%.

physchem = assay type: physicochemical
Protocol: EAK16 peptide stock solutions were prepared at a concentration of approximately 0.57 mM (1 mg/ml) in water. The molecular weight of EAK16 is 1,760. […] The concentration was determined by the ninhydrin methods using internal controls.

formation of macroscopic membranes ([1]; identical conditions, in words): could undergo self-assembly | membranous structure in Water ([1]; water): − | order of effectiveness of the monovalent cations [3]: Li^+>Na^+>K^+>Cs^+ | effect of anions and organic ions on membrane formation ([3]; acetate, Cl^−, SO4^−2, PO4^−2, NH4^+ and Tris-Cl): not found to induce membrane formation | solubility (physchem; maximal solubility in water): 3000 µM and ~5000 µg/mL | solubility (physchem; solubility in 23% actonitrile): ≤ 6000 µM and ~10000 µg/mL
Structure (SMILES): CC(=O)N[C@@H](C)C(=O)N[C@@H](CCC(=O)O)C(=O)N[C@@H](C)C(=O)N[C@@H](CCC(=O)O)C(=O)N[C@@H](C)C(=O)N[C@@H](CCCCN)C(=O)N[C@@H](C)C(=O)N[C@@H](CCCCN)C(=O)N[C@@H](C)C(=O)N[C@@H](CCC(=O)O)C(=O)N[C@@H](C)C(=O)N[C@@H](CCC(=O)O)C(=O)N[C@@H](C)C(=O)N[C@@H](CCCCN)C(=O)N[C@@H](C)C(=O)N[C@@H](CCCCN)C(N)=O [EAK16] (Ac-AEAEAKAKAEAEAKAK-NH2)
cell attachment (3T3; 3T3, 30 min, Ca^++ & Mg^++ free, EDTA serum-free + Cyclohex): ++++ | cell attachment (3T3; 3T3, 30 min, Normal Ca^++ & Mg^++ serum-free + Cyclohex): ++++ | cell attachment (3T3; 3T3, 60 min, Ca^++ & Mg^++ free, EDTA serum-free + Cyclohex): ++++ | cell attachment (3T3; 3T3, 60 min, Normal Ca^++ & Mg^++ serum-free + Cyclohex): ++++ | neurite outgrowth on biopolymers [2]: not on EAK16-based biopolymers | cell attachment (PC12; PC12, 30 min, Ca^++ & Mg^++ free, EDTA serum-free + Cyclohex): ++++ | cell attachment (PC12; PC12, 30 min, Normal Ca^++ & Mg^++ serum-free + Cyclohex): ++++ | cell attachment (PC12; PC12, 60 min, Ca^++ & Mg^++ free, EDTA serum-free + Cyclohex): ++++ | cell attachment (PC12; PC12, 60 min, Normal Ca^++ & Mg^++ serum-free + Cyclohex): ++++ | cell attachment (PC12NGF; 30 min, Ca^++ & Mg^++ free, EDTA serum-free + Cyclohex): ++++ | cell attachment (PC12NGF; 30 min, Normal Ca^++ & Mg^++ serum-free + Cyclohex): ++++ | cell attachment (PC12NGF; 60 min, Ca^++ & Mg^++ free, EDTA serum-free + Cyclohex): ++++ | cell attachment (PC12NGF; 60 min, Normal Ca^++ & Mg^++ serum-free + Cyclohex): ++++ | cell attachment (3T3 fibroblast cells; 3T3, 30 min, medium with serum, no cyclohexamide): ++++ | cell attachment (3T3 fibroblast cells; 3T3, 30 min, serum-free medium, + cyclohexamide): ++++ | cell attachment (3T3 fibroblast cells; 3T3, 60 min, medium with serum, no cyclohexamide): ++++ | cell attachment (3T3 fibroblast cells; 3T3, 60 min, serum-free medium, + cyclohexamide): ++++ | cell attachment (3T3 fibroblast cells; 3T3, 8 hrs, medium with serum, no cyclohexamide): ++++ | cell attachment (3T3 fibroblast cells; 3T3, 8 hrs, serum-free medium, + cyclohexamide): ++ | effect of divalent cations on membrane formation [3]: divalent cations primarily induce unstructured aggregates | effect of monovalent metal cations on membrane formation [3]: monovalent metal cations induce membrane formation
